Test results from patent US12622887B2 (priority 2019, dated 2026).

Experiments:
αKlotho = assay: Release of soluble αKlotho in supernatant of primary tubule cell cultures (RPTEC), ELISA; type: cell-based; details: for Average Klotho value: RPTEC supernatant
Procedure: Concentrations of H2O2 equal to 0.1, 0.2, 0.5 up to 1 mM were also tested. […] The soluble aKlotho analysis was performed using the commercial test ELISA lbl code 277789 following the manufacturer's instructions. […] The soluble aKlotho analysis was performed using ELISA lbl test.

[1] = test system: primary renal tubule cells; assay: MTT test, cell proliferation/viability of primary renal tubule cells; type: cell-based; details: tubule cells exposed to H2O2 0.5 mM alone

OO [H2O2]
Lowest concentration able to induce a statistically significant reduction in Klotho (αKlotho; 6 hours exposure of primary tubule cells): 0.1 mM
Average Klotho value (αKlotho; H2O2 6 h alone (0.1 mM), no pretreatment): 55.42 pg/mL
Cell viability (MTT test) [1]: significant reduction in cell viability

C[N+](C)(C)C[C@H](O)CC(=O)[O-] [Carnitine, L-Carnitine]
Average Klotho value (αKlotho; pre-treatment 12 h at 5 mM, then 6 h Gentamicin sulphate 10 mM): 6.68 pg/mL
Average Klotho value (αKlotho; pre-treatment 12 h at 5 mM, then 6 h Iodixanol 100 mg/ml): 77.06 pg/mL
Average Klotho value (αKlotho; pretreatment 12 h at 5 mM, then 6 h H2O2 0.1 mM): 140.25 pg/mL

CC(=O)N(CC(O)CN(C(C)=O)c1c(I)c(C(=O)NCC(O)CO)c(I)c(C(=O)NCC(O)CO)c1I)c1c(I)c(C(=O)NCC(O)CO)c(I)c(C(=O)NCC(O)CO)c1I (centres unmarked) [Iodixanol]
Change in Klotho compared to the basal condition (αKlotho; Iodixanol contrast medium only, 6 hours): drastic reduction in Klotho
Average Klotho value (αKlotho; Iodixanol 100 mg/ml 6 h alone): 0 pg/mL
